{
  "source": "paper PMC5218480",
  "about": "(PLoS ONE, 2017)",
  "test_system": "MV-4-11 cells",
  "test": "Gene expression microarray analysis (Affymetrix PrimeView) and GSEA",
  "format": "cell-based, human",
  "set-up": "RFU PODN (11730768_x_at) / Fold change /veh PODN (11730768_x_at) / RFU LINC00158 (11744669_a_at) / Fold change /veh LINC00158 (11744669_a_at) / RFU DUSP10 (11751237_a_at) / Fold change /veh DUSP10 (11751237_a_at) / RFU ID3 (11757404_x_at) / Fold change /veh ID3 (11757404_x_at) / RFU PLEKHG5 (11737974_s_at) / Fold change /veh PLEKHG5 (11737974_s_at) / RFU LRRC4B (11730491_at) / Fold change /veh LRRC4B (11730491_at) / RFU GIMAP4 (11747438_a_at) / Fold change /veh GIMAP4 (11747438_a_at) / RFU KRT8 (11758183_x_at) / Fold change /veh KRT8 (11758183_x_at) / RFU CNN1 (11734310_a_at) / Fold change /veh CNN1 (11734310_a_at) / RFU VPS37D (11726825_at) / Fold change /veh VPS37D (11726825_at) / RFU C10orf10 (11716522_x_at) / Fold change /veh C10orf10 (11716522_x_at) / RFU KIR2DL2 /// KIR2DL4 /// KIR2DL5A /// KIR2DL5B /// KIR2DS1 /// KIR2DS2 /// KIR2DS3 /// KIR2DS4 /// KIR3DL3 /// KIR3DL3 /// KIR3DS1 (11738374_at) / Fold change /veh KIR2DL2 /// KIR2DL4 /// KIR2DL5A /// KIR2DL5B /// KIR2DS1 /// KIR2DS2 /// KIR2DS3 /// KIR2DS4 /// KIR3DL3 /// KIR3DL3 /// KIR3DS1 (11738374_at) / RFU C1QL1 (11718748_at) / Fold change /veh C1QL1 (11718748_at) / RFU TMPRSS4 (11747572_a_at) / Fold change /veh TMPRSS4 (11747572_a_at) / RFU HAMP (11756126_x_at) / Fold change /veh HAMP (11756126_x_at) / RFU RNFT2 (11725882_a_at) / Fold change /veh RNFT2 (11725882_a_at) / RFU NR4A2 (11747474_a_at) / Fold change /veh NR4A2 (11747474_a_at) / RFU ABCC12 (11746883_a_at) / Fold change /veh ABCC12 (11746883_a_at) / RFU TMEM136 (11760407_x_at) / Fold change /veh TMEM136 (11760407_x_at) / RFU CLDN22 /// WWC2 (11732394_at) / Fold change /veh CLDN22 /// WWC2 (11732394_at) / RFU HLA-DPB1 (11760878_x_at) / Fold change /veh HLA-DPB1 (11760878_x_at) / RFU SPINT1 (11716480_a_at) / Fold change /veh SPINT1 (11716480_a_at) / RFU GAP43 (11754022_s_at) / Fold change /veh GAP43 (11754022_s_at) / RFU A4GNT (11735810_at) / Fold change /veh A4GNT (11735810_at) / RFU PRB3 (11715151_x_at) / Fold change /veh PRB3 (11715151_x_at) / RFU TUBB4B (11761932_at) / Fold change /veh TUBB4B (11761932_at) / RFU CAPN14 (11732068_a_at) / Fold change /veh CAPN14 (11732068_a_at) / RFU TMCC2 (11721928_a_at) / Fold change /veh TMCC2 (11721928_a_at) / RFU IRGQ (11745062_a_at) / Fold change /veh IRGQ (11745062_a_at) / RFU FAM174B (11720279_a_at) / Fold change /veh FAM174B (11720279_a_at) / RFU TMPRSS4 (11748680_a_at) / Fold change /veh TMPRSS4 (11748680_a_at) / RFU FAM212B (11763350_a_at) / Fold change /veh FAM212B (11763350_a_at) / RFU PLEKHG5 (11743358_a_at) / Fold change /veh PLEKHG5 (11743358_a_at) / RFU ZSCAN30 (11745921_a_at) / Fold change /veh ZSCAN30 (11745921_a_at) / RFU CMKLR1 (11741424_a_at) / Fold change /veh CMKLR1 (11741424_a_at) / RFU LOC101060620 /// MAPK8IP1 (11723275_at) / Fold change /veh LOC101060620 /// MAPK8IP1 (11723275_at) / RFU SPTSSB (11747773_x_at) / Fold change /veh SPTSSB (11747773_x_at) / RFU PRSS12 (11739890_at) / Fold change /veh PRSS12 (11739890_at) / RFU BIN1 (11741810_x_at) / Fold change /veh BIN1 (11741810_x_at) / RFU WNT11 (11732464_a_at) / Fold change /veh WNT11 (11732464_a_at) / RFU C10orf10 (11716521_a_at) / Fold change /veh C10orf10 (11716521_a_at) / RFU C5orf56 (11738089_at) / Fold change /veh C5orf56 (11738089_at) / RFU CYB561 (11721691_x_at) / Fold change /veh CYB561 (11721691_x_at) / RFU ANKRD19P (11752326_a_at) / Fold change /veh ANKRD19P (11752326_a_at) / RFU OR2T12 /// OR2T33 /// OR2T8 (11738714_s_at) / Fold change /veh OR2T12 /// OR2T33 /// OR2T8 (11738714_s_at) / RFU VCAN (11748164_a_at) / Fold change /veh VCAN (11748164_a_at) / RFU JSRP1 (11732532_at) / Fold change /veh JSRP1 (11732532_at) / RFU KRTAP10-11 (11738290_x_at) / Fold change /veh KRTAP10-11 (11738290_x_at) / RFU MYO3A (11730013_a_at) / Fold change /veh MYO3A (11730013_a_at) / RFU EBF3 (11725865_a_at) / Fold change /veh EBF3 (11725865_a_at) / RFU CAMK2N1 (11719241_x_at) / Fold change /veh CAMK2N1 (11719241_x_at) / RFU C5orf56 (11738088_a_at) / Fold change /veh C5orf56 (11738088_a_at) / RFU OLFML3 (11715873_a_at) / Fold change /veh OLFML3 (11715873_a_at) / RFU LOC100653217 /// NTM (11731650_a_at) / Fold change /veh LOC100653217 /// NTM (11731650_a_at) / RFU MAPK11 (11762145_a_at) / Fold change /veh MAPK11 (11762145_a_at) / RFU FIZ1 (11724087_x_at) / Fold change /veh FIZ1 (11724087_x_at) / RFU OASL (11726364_x_at) / Fold change /veh OASL (11726364_x_at) / RFU SOX15 (11748057_x_at) / Fold change /veh SOX15 (11748057_x_at) / RFU CD79A (11719716_a_at) / Fold change /veh CD79A (11719716_a_at) / RFU HIST1H1D (11736915_at) / Fold change /veh HIST1H1D (11736915_at) / RFU CASKIN2 (11723855_a_at) / Fold change /veh CASKIN2 (11723855_a_at) / RFU LOC730098 (11760151_x_at) / Fold change /veh LOC730098 (11760151_x_at) / RFU OR4N2 (11742367_at) / Fold change /veh OR4N2 (11742367_at) / RFU PRRT2 (11749266_a_at) / Fold change /veh PRRT2 (11749266_a_at) / RFU SNX32 (11753110_a_at) / Fold change /veh SNX32 (11753110_a_at) / RFU CDHR5 (11726645_a_at) / Fold change /veh CDHR5 (11726645_a_at) / RFU RCAN1 (11760418_a_at) / Fold change /veh RCAN1 (11760418_a_at) / RFU FAM167A (11723789_a_at) / Fold change /veh FAM167A (11723789_a_at) / RFU FAM26E (11764081_at) / Fold change /veh FAM26E (11764081_at) / RFU ISYNA1 (11749810_s_at) / Fold change /veh ISYNA1 (11749810_s_at) / RFU ACY1 (11761880_at) / Fold change /veh ACY1 (11761880_at) / RFU 11764098_at / Fold change /veh 11764098_at / RFU SAMD14 (11745864_x_at) / Fold change /veh SAMD14 (11745864_x_at) / RFU NPB (11741838_a_at) / Fold change /veh NPB (11741838_a_at) / RFU TMPRSS6 (11731388_a_at) / Fold change /veh TMPRSS6 (11731388_a_at) / RFU KRTAP10-2 (11738614_at) / Fold change /veh KRTAP10-2 (11738614_at) / RFU ARHGAP8 /// PRR5-ARHGAP8 (11727945_x_at) / Fold change /veh ARHGAP8 /// PRR5-ARHGAP8 (11727945_x_at) / RFU KRTAP5-7 /// NADSYN1 (11734609_at) / Fold change /veh KRTAP5-7 /// NADSYN1 (11734609_at) / RFU RASL12 (11751679_a_at) / Fold change /veh RASL12 (11751679_a_at) / RFU CDKN2B (11736163_a_at) / Fold change /veh CDKN2B (11736163_a_at) / RFU PRF1 (11729649_at) / Fold change /veh PRF1 (11729649_at) / RFU, ZNF638 /// ZNF638-IT1 / Fold change vs veh, ZNF638 /// ZNF638-IT1 / RFU, PANK3 / Fold change vs veh, PANK3 / RFU, SH3YL1 / Fold change vs veh, SH3YL1 / RFU, ZEB2 / Fold change vs veh, ZEB2 / RFU, NRIP1 / Fold change vs veh, NRIP1 / RFU, PTTG1IP / Fold change vs veh, PTTG1IP / RFU, CAPN2 / Fold change vs veh, CAPN2 / RFU, MED14 / Fold change vs veh, MED14 / RFU, SNORA58 / Fold change vs veh, SNORA58 / RFU, C1orf63 / Fold change vs veh, C1orf63 / RFU, LRRFIP1 / Fold change vs veh, LRRFIP1 / RFU, NDUFAF7 / Fold change vs veh, NDUFAF7 / RFU, SLC12A2 / Fold change vs veh, SLC12A2 / RFU, IBTK / Fold change vs veh, IBTK / RFU, ESF1 / Fold change vs veh, ESF1 / Fold change vs veh, TMEM50B / RFU, TAOK1 / Fold change vs veh, TAOK1 / RFU, ACBD3 / Fold change vs veh, ACBD3 / RFU, TMA16 / Fold change vs veh, TMA16 / RFU, RWDD3 / Fold change vs veh, RWDD3 / RFU, BCAT1 / Fold change vs veh, BCAT1 / RFU, EDEM3 / Fold change vs veh, EDEM3 / RFU, TMEM33 / Fold change vs veh, TMEM33 / RFU, WDR75 / Fold change vs veh, WDR75 / RFU, AHCTF1 / Fold change vs veh, AHCTF1 / RFU, TFRC / Fold change vs veh, TFRC / RFU, ZDHHC17 / Fold change vs veh, ZDHHC17 / RFU, NOM1 / Fold change vs veh, NOM1 / RFU, ARL8B / Fold change vs veh, ARL8B / RFU, ZBTB11 / Fold change vs veh, ZBTB11 / RFU, TAMM41 / Fold change vs veh, TAMM41 / RFU, KIAA1704 /// LOC100996395 / Fold change vs veh, KIAA1704 /// LOC100996395 / RFU, ING1 / Fold change vs veh, ING1 / RFU, TRMT61B / Fold change vs veh, TRMT61B / RFU, FUBP3 / Fold change vs veh, FUBP3 / RFU, TP53 / Fold change vs veh, TP53 / RFU, TNKS2 / Fold change vs veh, TNKS2 / RFU, ZFP14 / Fold change vs veh, ZFP14 / RFU, ACTR2 / Fold change vs veh, ACTR2 / RFU, PPP3R1 / Fold change vs veh, PPP3R1 / RFU, PIK3R1 / Fold change vs veh, PIK3R1 / RFU, HNRNPA1 / Fold change vs veh, HNRNPA1 / RFU, RNF170 / Fold change vs veh, RNF170 / RFU, ZNF28 / Fold change vs veh, ZNF28 / RFU, RNGTT / Fold change vs veh, RNGTT / RFU, OGT / Fold change vs veh, OGT / RFU, BRD1 / Fold change vs veh, BRD1 / RFU, MARS / Fold change vs veh, MARS / RFU, ZNF655 / Fold change vs veh, ZNF655 / RFU, FAHD1 / Fold change vs veh, FAHD1 / RFU, BDP1 / Fold change vs veh, BDP1 / RFU, LRRCC1 / Fold change vs veh, LRRCC1 / RFU, ARID1A / Fold change vs veh, ARID1A / RFU, ZNF146 / Fold change vs veh, ZNF146 / RFU, ZNF330 / Fold change vs veh, ZNF330 / RFU, GPN3 / Fold change vs veh, GPN3 / RFU, C9orf123 / Fold change vs veh, C9orf123 / RFU, N4BP2L2 / Fold change vs veh, N4BP2L2 / RFU, ARFIP1 / Fold change vs veh, ARFIP1 / RFU, FAM179B / Fold change vs veh, FAM179B / RFU, BCL10 / Fold change vs veh, BCL10 / RFU, UHRF1BP1L / Fold change vs veh, UHRF1BP1L / RFU, BET1 / Fold change vs veh, BET1 / RFU, CNOT2 / Fold change vs veh, CNOT2 / RFU, ZNF268 / Fold change vs veh, ZNF268 / Fold change vs veh, ZNF507 / RFU, DGCR2 / Fold change vs veh, DGCR2 / RFU, WDSUB1 / Fold change vs veh, WDSUB1 / Fold change vs veh, HSP90B1 /// MIR3652 / RFU, ADSS / Fold change vs veh, ADSS / RFU, GK / Fold change vs veh, GK / RFU, ZNF148 / Fold change vs veh, ZNF148 / RFU, TAF9 / Fold change vs veh, TAF9 / RFU, SLC1A5 / Fold change vs veh, SLC1A5 / RFU, SLMO2 / Fold change vs veh, SLMO2 / RFU, ABCC4 / Fold change vs veh, ABCC4 / RFU, LOC101060439 /// RAP1B / Fold change vs veh, LOC101060439 /// RAP1B / RFU, RFX7 / Fold change vs veh, RFX7 / RFU, GTPBP10 / Fold change vs veh, GTPBP10 / RFU, CNEP1R1 / Fold change vs veh, CNEP1R1 / RFU, BIVM-ERCC5 /// ERCC5 / Fold change vs veh, BIVM-ERCC5 /// ERCC5 / RFU, ILF3 / Fold change vs veh, ILF3 / RFU 11762660_at / Fold change /veh 11762660_at / RFU VCAN (11757783_s_at) / Fold change /veh VCAN (11757783_s_at) / RFU DDX43 (11728927_at) / Fold change /veh DDX43 (11728927_at) / RFU KRT8 (11758188_x_at) / Fold change /veh KRT8 (11758188_x_at) / RFU NKD1 (11759106_at) / Fold change /veh NKD1 (11759106_at) / RFU SRD5A1 (11742802_a_at) / Fold change /veh SRD5A1 (11742802_a_at) / RFU TPSAB1 /// TPSB2 (11721975_s_at) / Fold change /veh TPSAB1 /// TPSB2 (11721975_s_at) / RFU GSTM3 (11746129_a_at) / Fold change /veh GSTM3 (11746129_a_at) / RFU IL23R (11737362_x_at) / Fold change /veh IL23R (11737362_x_at) / RFU TMEM51 (11727254_a_at) / Fold change /veh TMEM51 (11727254_a_at) / RFU PIWIL2 (11732686_x_at) / Fold change /veh PIWIL2 (11732686_x_at) / RFU ORM1 (11744905_x_at) / Fold change /veh ORM1 (11744905_x_at) / RFU CCDC152 (11743942_at) / Fold change /veh CCDC152 (11743942_at) / RFU ECM1 (11717891_a_at) / Fold change /veh ECM1 (11717891_a_at) / RFU IL23R (11748794_a_at) / Fold change /veh IL23R (11748794_a_at) / RFU TNFAIP8L3 (11732012_x_at) / Fold change /veh TNFAIP8L3 (11732012_x_at) / RFU MBOAT4 (11741988_at) / Fold change /veh MBOAT4 (11741988_at) / RFU 11764193_at / Fold change /veh 11764193_at / RFU TMEM53 (11763286_at) / Fold change /veh TMEM53 (11763286_at) / RFU MAGEB2 (11727129_at) / Fold change /veh MAGEB2 (11727129_at) / RFU TMEM200A (11744735_a_at) / Fold change /veh TMEM200A (11744735_a_at) / RFU CCDC152 (11751479_a_at) / Fold change /veh CCDC152 (11751479_a_at) / RFU FAM211A (11726209_a_at) / Fold change /veh FAM211A (11726209_a_at) / RFU RGS16 (11746705_a_at) / Fold change /veh RGS16 (11746705_a_at) / RFU VCAN (11755009_s_at) / Fold change /veh VCAN (11755009_s_at) / RFU RHOB (11743442_s_at) / Fold change /veh RHOB (11743442_s_at) / RFU RGS16 (11720943_a_at) / Fold change /veh RGS16 (11720943_a_at) / RFU RGS16 (11720944_at) / Fold change /veh RGS16 (11720944_at) / RFU, VPS4B / Fold change vs veh, VPS4B / RFU, CREB1 / Fold change vs veh, CREB1 / RFU, DNAJC13 / Fold change vs veh, DNAJC13 / RFU, GNAQ / Fold change vs veh, GNAQ / RFU, CDK5R1 / Fold change vs veh, CDK5R1 / RFU, ZRANB3 / Fold change vs veh, ZRANB3 / RFU, CUL4A / Fold change vs veh, CUL4A / RFU, CCNY / Fold change vs veh, CCNY / RFU, UFL1 / Fold change vs veh, UFL1 / RFU, COG3 / Fold change vs veh, COG3 / RFU, DIAPH2 / Fold change vs veh, DIAPH2 / RFU, SKA2 / Fold change vs veh, SKA2 / RFU, AFF3 / Fold change vs veh, AFF3 / RFU, LMF1 / Fold change vs veh, LMF1 / RFU, IPO11 / Fold change vs veh, IPO11 / RFU, DFFB / Fold change vs veh, DFFB / RFU, FOXP1 / Fold change vs veh, FOXP1 / RFU, CARD8 / Fold change vs veh, CARD8 / RFU, STRN3 / Fold change vs veh, STRN3 / RFU, ADK / Fold change vs veh, ADK / RFU, RASSF2 / Fold change vs veh, RASSF2 / RFU, WIPF1 / Fold change vs veh, WIPF1 / RFU, LARP1B / Fold change vs veh, LARP1B / RFU, RASA1 / Fold change vs veh, RASA1 / RFU, RB1 / Fold change vs veh, RB1 / RFU, PPFIA1 / Fold change vs veh, PPFIA1 / RFU, MAT2A / Fold change vs veh, MAT2A / RFU, CCT5 / Fold change vs veh, CCT5 / RFU, WDR92 / Fold change vs veh, WDR92 / RFU, CUX1 / Fold change vs veh, CUX1 / RFU, TTC7A / Fold change vs veh, TTC7A / RFU, TMEM135 / Fold change vs veh, TMEM135 / RFU, DEPTOR / Fold change vs veh, DEPTOR / RFU, CPM / Fold change vs veh, CPM / RFU, DNAJB6 / Fold change vs veh, DNAJB6 / RFU, CACNA2D3 / Fold change vs veh, CACNA2D3 / RFU, DTX4 / Fold change vs veh, DTX4 / RFU, TFCP2 / Fold change vs veh, TFCP2 / RFU, GMCL1 /// GMCL1P1 / Fold change vs veh, GMCL1 /// GMCL1P1 / RFU, AEBP2 / Fold change vs veh, AEBP2 / RFU, SNHG1 /// SNORD22 /// SNORD25 /// SNORD26 /// SNORD27 /// SNORD28 /// SNORD29 /// SNORD31 / Fold change vs veh, SNHG1 /// SNORD22 /// SNORD25 /// SNORD26 /// SNORD27 /// SNORD28 /// SNORD29 /// SNORD31 / Fold change (Aza/veh), C12orf56 (ProbeSet 11735607_a_at) / Fold change (ACY-1035/veh), C12orf56 (ProbeSet 11735607_a_at) / Fold change (Aza/veh), FGFR1OP (ProbeSet 11751329_s_at) / Fold change (ACY-1035/veh), FGFR1OP (ProbeSet 11751329_s_at) / Fold change (Aza/veh), VPS36 (ProbeSet 11739960_a_at) / Fold change (ACY-1035/veh), VPS36 (ProbeSet 11739960_a_at) / RFU SYPL1 (11715823_x_at) / Fold change /veh SYPL1 (11715823_x_at) / RFU IGFBP7 (11715501_s_at) / Fold change /veh IGFBP7 (11715501_s_at) / RFU REEP3 (11722064_at) / Fold change /veh REEP3 (11722064_at) / RFU IGLL1 (11728026_x_at) / Fold change /veh IGLL1 (11728026_x_at): dose or concentration left out as unconfirmed",
  "settings": "ProbeSet 11743510_at; LIST D",
  "data": [
    {"smiles": "Nc1ncn([C@@H]2O[C@H](CO)[C@@H](O)[C@H]2O)c(=O)n1", "note": "[azacitidine]", "values": [
      {"measurement": "RFU, UFL1", "value": 314.03, "unit": "RFU"}
    ]}
  ]
}
